One data set concerns HMEC-1. Briefly: Cytoprotective activity against 4HNE-induced cytotoxicity in HMEC1 cells at 25 uM by MTT assay. It counts as functional, cell-based. The following applies: Homo sapiens. A general note: Tetrazolium dyes change colour on reduction, which living cells bring about.
Data set [1] in a line: Inhibition against copper-induced LDL oxidation in cell-free system at 10 uM after 3 hrs by TBARS assay. Also on record: scale not given: the % may be the effect or the level left.
Data set [2] can be described thus: Cytotoxicity against HMEC1 cells after 6 hrs by MTT assay. Format: cell-based. The following applies: human, hmec-1, 6 h.
Data set [3] is described as follows: Inhibition against UV-induced LDL oxidation in cell-free system at 10 uM after 2 hrs by TBARS assay. Also on record: scale not given: the % may be the effect or the level left.
Data set [4] in a line: Antioxidant activity assessed as trolox equivalents of ABTS radical scavenging activity by TEAC assay. Format: functional.
The nature of data set [5]: Antioxidant activity against superoxide radical generation in HMEC1 cells. It counts as functional, Homo sapiens, HMEC-1.
Data set [6] can be described thus: Inhibition of cell-mediated LDL oxidation in HMEC1 cells at 10 uM after 6 hrs by TBARS assay. Also on record: scale not given: the % may be the effect or the level left.
Data set [7] concerns Radical scavenging activity. Briefly: Antioxidant activity assessed as DPPH radical scavenging activity after. It counts as functional. (In general: Loss of DPPH colour is used to gauge radical scavenging.)

A word on the IC50: it is the point on the concentration scale where inhibition reaches its midpoint.

The structures appear in SMILES notation. Calls of active or inactive are those of the source. The calls are words filed in the database; no cut-off is given here.

Regarding `NNC(=O)c1ccncc1`, the result with HMEC-1 was inactive.
Consider `COc1cc(C(=O)O)cc(OC)c1O`, for which, in the data set on HMEC-1, the outcome was inactive.
As for `COc1cc(/C=N/NC(=O)c2cc(C)n[nH]2)cc(OC)c1O`, the Activity in data set [1] was found to be 4%; in data set [2], 69%; in data set [3], 17%; in data set [4], 1.15; in data set [5] it was 50%; in data set [6] it was 3%.
Turning to `COc1cc(/C=N/Nc2ccc(F)cc2)cc(OC)c1O`, the Activity in data set [1] was found to be 6%; in data set [2], 58%; in data set [3], 18%; in data set [4], 1.02; in data set [5], 57%; in data set [6], 5%.
On to `COc1cc(/C=N/Nc2nncc3ccccc23)cc(OC)c1O.Cl`, for which the Activity was determined as 5% in data set [1]; 66% in data set [2]; 18% in data set [3]; 0.75 in data set [4]; 30% in data set [5]; 4% in data set [6].
`Cc1c(C)c2c(c(C)c1O)CCC(C)(C(=O)O)O2` (centres undefined) [TROLOX]: the Activity in data set [1] came to 6%; in data set [2], 57%; in data set [3], 18%; in data set [5], 5%; in data set [6], 3%.
With `COc1cc(/C=N/Nc2c(Cl)cc(C(F)(F)F)cc2Cl)cc(OC)c1O`, the Activity in data set [1] worked out at 3%; in data set [2], 74%; in data set [3], 15%; in data set [4], 0.98; in data set [5], 42%; in data set [6], 4%.
On to `COc1cc(/C=N/Nc2ccccc2F)cc(OC)c1O`, for which the Activity was determined as 4% in data set [1]; 79% in data set [2]; 16% in data set [3]; 0.78 in data set [4]; 33% in data set [5]; 13% in data set [6].
`COc1cc(/C=N/NC(=O)c2ccncc2)cc(OC)c1O`: the Activity in data set [1] is 85%; in data set [2], 65%; in data set [3], 18%; in data set [4], 1.25; in data set [5] it was 22%; in data set [6] it was 7%. In addition, the IC50 in data set [7] was found to be 17 µM.
With `COc1cc(/C=N/NC(=N)N)cc(OC)c1O.Cl`, the Activity stood at 6% in data set [1]; 70% in data set [2]; 24% in data set [3]; 0.69 in data set [4]; 36% in data set [5]; 10% in data set [6].
`COc1cc(/C=N/NC(=O)c2cccnc2)cc(OC)c1O`: the Activity came out at 77% in data set [1]; 60% in data set [2]; 20% in data set [3]; 1.25 in data set [4]; 44% in data set [5]; 5% in data set [6]. Also, the IC50 in data set [7] was 18 µM.
Regarding `COc1cc(/C=N/Nc2nc3ccccc3s2)cc(OC)c1O`, the Activity in data set [1] was found to be 2%; in data set [2], 55%; in data set [3], 17%; in data set [4], 0.89; in data set [5] it was 56%; in data set [6] it was 3%.
Turning to `COc1cc(/C=N/NC(=O)OCc2ccccc2)cc(OC)c1O`, the Activity in data set [1] was 6%; in data set [2] it was 69%; in data set [3], 18%; in data set [4], 1.11; in data set [5], 50%; in data set [6] it was 3%.

The record behind these values is ChEMBL document CHEMBL1177867, “Synthesis and antioxidant activity evaluation of a syringic hydrazones family” (Eur J Med Chem, 2010).
